Measured values taken from patent US20170049739A1, “PROSTACYCLIN COMPOUNDS, COMPOSITIONS AND METHODS OF USE THEREOF” (INSMED INCORPORATED, priority 2013, published 2017).

Experiments:
[1] = Treprostinil alkyl ester conversion to treprostinil in rat lung tissue homogenate; assay type: in vitro ADME; settings: 37° C., 200 nM, 10 mg/mL of protein, 4 hours
Method: (§1) Treprostinil alkyl ester conversion to treprostinil was also measured in the presence of rat, dog and monkey lung tissue homogenate at 37° C. Mere, data were calculated based on fit of exponential increase to the maximum (experiments performed in duplicate). The results of this study are provided below in Table 2A and FIG. 37. […] Both FIG. 37 experiments (left and right graphs) were performed in duplicate and the lines represent nonlinear exponential regression assuming 1 phase decay.

[2] = Treprostinil alkyl ester conversion to treprostinil in dog lung tissue homogenate; assay type: in vitro ADME; settings: 37° C., 200 nM, 10 mg/mL of protein, 4 hours
Method: as §1

CHO-K1 cells = test: CHO-K1 cell proliferation assay; settings: unformulated alkyl esters, 0.195 μM-25 μM, 48 hour incubation
Method: CHG-K1 cells were harvested when the cell monolayer was 50-90% confluent (use passage 4-11). Media was aspirated out of the flask, and cells were rinsed with 2 mL of F12 media. Next, 1 mL of pre-warmed (37° C.) 0.25%o trypsin-EDTA (Life Technologies, Cat#: 25300054) was added, and cells were dislodged from the flask by tapping it on the side. Complete growth media (F12 (Life Technologies, Cat #: 31765092) +10%FBS (Hyclone, Cat #: SH30071.03)+1× Pen-Strep (Life Technologies, cat #15140-122) was then added at a volume of 10 mL. Cells were eentrifuged at 250×g for 5 minutes at room temperature, and the media was aspirated. The cell pellet was resuspended in 10 ml. complete growth media. Cell number was determined using a hemacytometer. Ceils were then seeded at 2000 cells per well of a 96-well plate in 100 μL of complete growth media. The plate was incubated overnight at 37° C. and 5% CO2 in a water-jacketed incubator.
The next day, 80 μL of fresh complete media was added to each well, and CHO—K1 cells were challenged with treprostinil compound and composition treatments. The working solutions were prepared at 10× concentration, and following 2 fold serial dilutions, 20 μL aliquots were added per well to arrive at a final 1× concentration. Following a 48 hour incubation at 37° C. and 5% CO2 in a water-jacketed incubator, the inhibitory effect on cell proliferation was determined. Plates were analyzed using 20 μL of Presto Blue reagent (Life Technologies, cat #: A13262) per well. The reagent was mixed, and plates were incubated for 1 hour at 37° C. and 5% CO2 in a water-jacketed incubator. Plates were read using either a CytoFluor Series 4000 (PerSeptive BioSystems) or Synergy Neo microplate reader (BioTek) with emission λ: 590 nm and excitation λ: 560 nm.
Following a 48 hour incubation period, the inhibitory effect of the treprostinil derivative compositions on cell proliferation was determined.
CHO—K1 cells were challenged with treprostinil alkyl esters, i.e., TR compounds of Formula (A), having the following R2 groups: • C2, C3, C4, C5, C6, C8, C10 or C12 straight chain alkyl, at dosages ranging from 0.098 μM to 25 μM, Following a 48 hour incubation period, the inhibitory effect on cell proliferation was determined.
Following a 72 hour incubation period, the inhibitory effect on cell proliferation was determined. Following a 48 hour incubation period, the inhibitory effect on cell proliferation was determined.
Similarly, CHG-K1 cells were challenged with the treprostinil compositions T612 (R2═C2), T613 (R2═C8) at concentrations ranging from 1.41 μM to 180 μM.

NR8383 cells = test: NR8383 cell proliferation assay; assay type: cell-based, rat; settings: unformulated alkyl esters, 0.195 μM-25 μM, 72 hour incubation
Method: Rat alveolar NR8383 cells were harvested when the monolayer was 50-90% confluent (use passage 5-11). Because the NR8383 cells include both adherent and non-adherent cells, media was transferred to a 50 mL Falcon tube. To obtain the cells remaining in the flask, 2 mL of plain media was added, and the remaining cells were scraped out of the 75 cm^2 flask with a cell scraper and added to the 50 mL tube. […] SH30071.03) […] Technologies, cat #: 15410-122)). Cell number was determined using a hemacytometer. […] Measurements and calculations were made as described above for the CHO-K1 cells.

[3] = Treprostinil alkyl ester conversion to treprostinil in monkey lung tissue homogenate; assay type: in vitro ADME; settings: 37° C., 200 nM, 10 mg/mL of protein, 4 hours
Method: as §1

For `CCCCCCCCCCCCOC(=O)COc1cccc2c1C[C@H]1C[C@@H](O)[C@H](CC[C@@H](O)CCCCC)[C@H]1C2` [C12-TR, dodecyl-treprostinil], the “Rate of treprostinil alkyl ester conversion” value (shortened to “Rate”) [1] was 1.1 nmOL/h * g of protein, the “Rate” value [2] was 2.2 nmOL/h * g of protein and the “Effect on cell proliferation: concentration with detectable inhibition” value (CHO-K1 cells) was “No detectable cell inhibition”. The “Effect on cell proliferation” value (NR8383 cells) was “No detectable cell inhibition” and the “Rate” value [3] was 0.6 nmOL/h * g of protein.
